Data taken from patent US20050085447A1, “Pyrido[3,4-d]pyrimidine derivatives as matrix metalloproteinase-13 inhibitors” (Warner-Lambert Company LLC, priority 2003, published 2005).

Assays:
MMP-8 full-length = target: T1, MMP-8 full-length (Homo sapiens, UniProt P22894); assay: Thiopeptolide substrate hydrolysis inhibition assay, MMP-8 full-length; assay type: biochemical; conditions: full-length enzyme; read-out: MMP-8FL IC50
T1 construct: MMP-7 full-length, MMP-8 full-length, MMP-9 full-length
Description: (§1) The assay methods of Biological Examples 1-4 measure the amount by which a test compound reduces the hydrolysis of a thiopeptolide substrate catalyzed by a matrix metalloproteinase enzyme or catalytic domain thereof. It has been shown previously by Ye Qi-Zhuang, Hupe D., and Johnson L. (Current Medicinal Chemistry, 1996;3:407-418) that inhibitor activity against a catalytic domain of an MMP is predictive of the inhibitor activity against the respective full-length MMP enzyme. The methods described below for the inhibition of MMP-13 may also be adapted and used to determine the ability of the compounds of Formula I to inhibit other matrix metalloproteases such as MMP-1, MMP-2, MMP-3, MMP-7, MMP-8, MMP-9, MMP-12, MMP-14, MMP-17, and the like.
(§2) Thiopeptolide substrates show virtually no decomposition or hydrolysis at or below neutral pH in the absence of a matrix metalloproteinase enzyme. A typical thiopeptolide substrate commonly utilized for assays is Ac-Pro-Leu-Gly-thioester-Leu-Leu-Gly-OEt. A 100 μL assay mixture will contain 50 mM of N-2-hydroxyethylpiperazine-N′-2-ethanesulfonic acid buffer (“HEPES,” pH 7.0), 10 mM CaCl2, 100 μM thiopeptolide substrate, and 1 mM 5,5′-dithio-bis-(2-nitro-benzoic acid) (DTNB). […] The change in absorbance at 405 nm is monitored on a Thermo Max microplate reader (molecular Devices, Menlo Park, Calif.) at room temperature (22° C.). The calculation of the amount of hydrolysis of the thiopeptolide substrate is based on E412=13600 M^−1 cm^−1 for the DTNB-derived product 3-carboxy-4-nitrothiophenoxide. Assays are carried out with and without matrix metalloproteinase inhibitor compounds, and the amount of hydrolysis is compared for a determination of inhibitory activity of the test compounds.
(§3) Test compounds were evaluated at various concentrations in order to determine their respective IC50 values, the micromolar concentration of compound required to cause a 50% inhibition of catalytic activity of the respective enzyme.
(§4) Some representative compounds of Formula I have been evaluated for their ability to inhibit MMP-13, MMP-1FL, MMP-3CD, MMP-7FL, MMP-8FL, MMP-9FL, MMP-12CD, MMP-14CD, and/or MMP-17CD, wherein FL means full-length enzyme and CD means a catalytic domain of the full-length enzyme. Test compounds can be evaluated at various concentrations in order to determine their respective IC50 values, the micromolar concentration of compound required to cause a 50% inhibition of the hydrolytic activity of the respective enzyme.
(§5) Certain compounds of Formula I have also been assayed with MMP-1 full-length, MMP-3 catalytic domain, MMP-7 full-length, MMP-8 full-length, MMP-9 full-length, MMP-12 catalytic domain, MMP-14 catalytic domain, and MMP-17 catalytic domain. […] In Biological Table 2, the compound example numbers for the Compound Examples are indicated in the column labelled “Ex. No.”

MMP-7 full-length = target: T2, MMP-7 full-length (Homo sapiens, UniProt P09237); assay: Thiopeptolide substrate hydrolysis inhibition assay, MMP-7 full-length; assay type: biochemical; conditions: full-length enzyme; read-out: MMP-7FL IC50
T2 construct: MMP-3 catalytic domain, MMP-7 full-length, MMP-8 full-length
T2 sequence (P09237 95-267): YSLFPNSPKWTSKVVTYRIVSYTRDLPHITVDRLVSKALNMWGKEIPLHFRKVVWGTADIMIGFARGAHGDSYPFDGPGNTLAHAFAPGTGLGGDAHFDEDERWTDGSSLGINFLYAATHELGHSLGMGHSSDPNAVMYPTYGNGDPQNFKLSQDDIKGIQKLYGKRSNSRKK
Description: as §1, §2, §3, §4, §5

MMP-9 full-length = target: T3, MMP-9 full-length (Homo sapiens, UniProt P14780); assay: Thiopeptolide substrate hydrolysis inhibition assay, MMP-9 full-length; assay type: biochemical; conditions: full-length enzyme; read-out: MMP-9FL IC50
T3 construct: MMP-8 full-length, MMP-9 full-length, MMP-12 catalytic domain
Description: as §1, §2, §3, §4, §5

male Wistar rats = assay: Monosodium iodoacetate-induced osteoarthritis in rat model of cartilage damage (MIA Rat); assay type: in vivo; conditions: for inhibition of cartilage erosion (surface area of erosion) versus vehicle control / rats in the treatment group that exhibited no cartilage erosion: 4 weeks
Description: One end result of the induction of osteoarthritis in this model, as determined by histologic analysis, is the development of an osteoarthritic condition within the affected joint, as characterized by the loss of Toluidine blue staining and formation of osteophytes. Associated with the histologic changes is a concentration-dependent degradation of joint cartilage, as evidenced by affects on hind-paw weight distribution of the limb containing the affected joint, the presence of increased amounts of proteoglycan or hydroxyproline in the joint upon biochemical analysis, or histopathological analysis of the osteoarthritic lesions.
In the MIA Rat model on Day 0, the hind-paw weight differentials between the right arthritic joint and the left healthy joint of male Wistar rats (150 g) were determined with an incapacitance tester, model 2KG (Linton Instrumentation, Norfolk, United Kingdom). […] Then the rats were anesthetized with isofluorine, and the right, hind leg knee joint was injected with 1.0 mg of mono-iodoacetate (“MIA”) through the infrapatellar ligament. […] The rats were further administered either the compound of Compound Example 1 or vehicle (in the instant case, water) daily for 14 days or 28 days. The compound of Compound Example 1 was administered at doses of 1, 3, 10, and 30 milligrams per kilogram of rat per day, but invention compounds may be administered at other doses such as, for example, 60 mg/kg/day, 90-mg/kg/day, or 100 mg/kg/day according to the requirements of the compound being studied. It is well within the level of ordinary skill in the pharmaceutical arts to determine a proper dosage of an invention compound in this model.
Generally, an invention compound may be administered in this model by oral administration, but optionally intravenous administration via an osmotic pump could be employed. After 7 and 14 days for a two-week study, or 7, 14, and 28 days for a four-week study, the hind-paw weight distribution may be determined. […] This change in weight distribution was proportional to the degree of joint cartilage damage. Percent inhibition of a change in hind paw joint function was calculated as the percent change in hind-paw weight distribution for treated animals versus control animals. For example, for a two week study,
In the present study the compound of Compound Example 1 was administered perorally, and hind-paw weight differentials were determined at both 2 and 4 weeks. Further, in order to detect the presence of erosion of cartilage in the joints, the animals in the above study were sacrificed at 4 weeks, and the presence or absence of cartilage erosion was determined. The proportion of subjects without hind limb erosions was determined via an Exact Sequential Cochran-Armitage Trend test (SAS® Institute, 1999). The Cochran-Armitage Trend test was employed to determine whether the proportion of positive or “Yes” responders increases or decreases with increasing levels of treatment. For this particular study, it was expected that the number of animals without joint erosions increased with increasing dose.

T3 sequence (P14780 94-707): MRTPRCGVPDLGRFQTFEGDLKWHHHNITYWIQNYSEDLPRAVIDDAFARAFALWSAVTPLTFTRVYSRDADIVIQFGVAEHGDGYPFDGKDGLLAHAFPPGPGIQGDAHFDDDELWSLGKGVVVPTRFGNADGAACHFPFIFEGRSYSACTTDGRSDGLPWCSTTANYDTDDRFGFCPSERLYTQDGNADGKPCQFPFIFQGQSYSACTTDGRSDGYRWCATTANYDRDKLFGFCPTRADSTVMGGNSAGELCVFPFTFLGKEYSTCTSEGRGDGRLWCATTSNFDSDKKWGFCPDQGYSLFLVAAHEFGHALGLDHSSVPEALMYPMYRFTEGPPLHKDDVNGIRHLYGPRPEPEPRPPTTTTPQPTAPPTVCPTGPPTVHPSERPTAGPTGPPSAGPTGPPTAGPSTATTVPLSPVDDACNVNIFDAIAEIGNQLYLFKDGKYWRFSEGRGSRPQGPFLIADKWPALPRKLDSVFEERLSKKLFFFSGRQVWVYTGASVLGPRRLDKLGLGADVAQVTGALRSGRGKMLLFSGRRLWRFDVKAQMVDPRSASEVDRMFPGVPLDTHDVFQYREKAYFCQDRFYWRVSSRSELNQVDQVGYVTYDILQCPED
T1 sequence (P22894 101-467): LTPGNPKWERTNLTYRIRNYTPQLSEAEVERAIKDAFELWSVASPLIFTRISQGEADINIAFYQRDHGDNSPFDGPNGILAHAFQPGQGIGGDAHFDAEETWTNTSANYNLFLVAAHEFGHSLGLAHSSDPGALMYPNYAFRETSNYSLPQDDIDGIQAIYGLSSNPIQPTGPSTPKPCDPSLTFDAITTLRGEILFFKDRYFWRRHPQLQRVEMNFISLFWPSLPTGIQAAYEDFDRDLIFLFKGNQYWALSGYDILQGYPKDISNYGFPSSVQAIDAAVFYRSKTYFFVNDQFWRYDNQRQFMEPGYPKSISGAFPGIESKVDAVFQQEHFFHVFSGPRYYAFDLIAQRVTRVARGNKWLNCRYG

In the case of COc1ccc(CNC(=O)c2cc3c(=O)n(Cc4ccc(C(=O)O)cc4)cnc3cn2)cc1 [Compound Example 1, 4-[6-(4-methoxy-benzylcarbamoyl)-4-oxo-4H-pyrido[3,4-d]pyrimidin-3-ylmethyl]-benzoic acid], the IC50 (MMP-8 full-length) is reported as greater than 100 µM, the IC50 (MMP-7 full-length) is reported as greater than 100 µM and the IC50 (MMP-9 full-length) is reported as greater than 100 µM. For the same compound, the “cartilage erosion versus vehicle control (in words)” value (male Wistar rats; 2 weeks, 1, 3, 10 and 30 mg/kg orally BID) was “inhibited in a dose dependent manner cartilage erosion”, the “inhibition of cartilage erosion (surface area of erosion) versus vehicle control” value (male Wistar rats; 1 mg/kg orally BID) was 40.5% and the “rats in the treatment group that exhibited no cartilage erosion” value (male Wistar rats; 1 mg/kg orally BID) was 5/12. The “inhibition of cartilage erosion (surface area of erosion) versus vehicle control” value (male Wistar rats; 3 mg/kg orally BID) was 55.6%, the “rats in the treatment group that exhibited no cartilage erosion” value (male Wistar rats; 3 mg/kg orally BID, p<0.05 versus vehicle) was 7/12 and the “inhibition of cartilage erosion (surface area of erosion) versus vehicle control” value (male Wistar rats; 10 mg/kg orally BID) was 61.6%. For the same compound, the “rats in the treatment group that exhibited no cartilage erosion” value (male Wistar rats; 10 mg/kg orally BID, p<0.05 versus vehicle) was 7/12, the “inhibition of cartilage erosion (surface area of erosion) versus vehicle control” value (male Wistar rats; 30 mg/kg orally BID) was 32.9% and the “rats in the treatment group that exhibited no cartilage erosion” value (male Wistar rats; 30 mg/kg orally BID) was 4/12.
